Measured values from ChEMBL document CHEMBL1201862, “PubChem BioAssay data set” (2004).
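Exposure lasted 48 hours, with cells grown in 96-well plates and compounds tested at five concentrations. Here, GI50 denotes the concentration required for 50% inhibition of growth.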 Activity calls are given as the source filed them. Rule as the data show it: active = GI50 up to about 1.1 µM and inactive = higher.

Columns and labels:
Assay in all cases: NCI-60 cell line screen, 48 h
A498 = tested on: A498
A549 = tested on: A549
ACHN = tested on: ACHN
CCRF-CEM = tested on: CCRF-CEM
HCC 2998 = tested on: HCC 2998
HOP-62 = tested on: HOP-62
KM12 = tested on: KM12
M14 = tested on: M14
OVCAR-4 = tested on: OVCAR-4
OVCAR-8 = tested on: OVCAR-8
SK-MEL-28 = tested on: SK-MEL-28
SN12C = tested on: SN12C
SNB-75 = tested on: SNB-75
EKVX = tested on: EKVX
HCT-116 = tested on: HCT-116
K562 = tested on: K562
LOX IMVI = tested on: LOX IMVI
NCI-H522 = tested on: NCI-H522
786-0 = tested on: 786-0
Malme-3M = tested on: Malme-3M

Measured: GI50

COc1ccc(-c2cs/c(=N\c3ccccc3)n2CCCN(C)C)cc1
inactive: A498 22 µM | A549 17.1 µM | ACHN 21.8 µM | CCRF-CEM 21.1 µM | HCC 2998 16.3 µM | HOP-62 13.6 µM | KM12 15 µM | M14 10.7 µM | OVCAR-4 23.3 µM | OVCAR-8 21.8 µM | SK-MEL-28 18.2 µM | SN12C 33.7 µM | SNB-75 4.44 µM

O=C(Nc1ccc(Cl)c(Cl)c1)C(=O)C(C(=O)c1ccccc1F)C1OC(=O)c2ccccc21 (stereo not drawn)
inactive: A498 37.8 µM | A549 27.8 µM | ACHN 31.9 µM | CCRF-CEM 13.8 µM | EKVX 22.4 µM | HCC 2998 17.9 µM | HCT-116 16.8 µM | HOP-62 23.4 µM | K562 22 µM | KM12 20 µM | LOX IMVI 18.4 µM | M14 16.4 µM | NCI-H522 12.6 µM | OVCAR-4 22.3 µM | OVCAR-8 15.2 µM | SK-MEL-28 25.3 µM | SN12C 19.2 µM | SNB-75 18.6 µM

NC(=O)OCC(COc1ccc(Cl)cc1)OC(=O)c1cc([N+](=O)[O-])cc([N+](=O)[O-])c1 (stereo not drawn)
inactive: 786-0 41.6 µM | A498 > 100 µM | A549 > 100 µM | ACHN > 100 µM | CCRF-CEM 97.3 µM | EKVX > 100 µM | HCC 2998 > 100 µM | HCT-116 35.8 µM | HOP-62 > 100 µM | K562 37.2 µM | KM12 > 100 µM | LOX IMVI 17.9 µM | M14 > 100 µM | Malme-3M > 100 µM | NCI-H522 79.3 µM | OVCAR-8 > 100 µM | SK-MEL-28 > 100 µM | SN12C > 100 µM | SNB-75 > 100 µM

CSc1sc(C)cc1-c1nsc(=O)o1
inactive: 786-0 > 100 µM | A498 > 100 µM | A549 > 100 µM | ACHN > 100 µM | CCRF-CEM > 100 µM | EKVX > 100 µM | HCC 2998 > 100 µM | HCT-116 > 100 µM | K562 > 100 µM | KM12 > 100 µM | LOX IMVI > 100 µM | M14 > 100 µM | Malme-3M > 100 µM | NCI-H522 > 100 µM | OVCAR-4 > 100 µM | SK-MEL-28 > 100 µM | SN12C > 100 µM

COc1ccc(NC(=O)C(=O)NNC(=O)c2sc(NNC(C)=O)nc2C)c([N+](=O)[O-])c1
inactive: 786-0 > 100 µM | A498 33.3 µM | A549 > 100 µM | ACHN 45.5 µM | CCRF-CEM 24.2 µM | EKVX > 100 µM | HCC 2998 > 100 µM | HCT-116 > 100 µM | HOP-62 > 100 µM | K562 37.1 µM | KM12 > 100 µM | LOX IMVI 40.6 µM | M14 > 100 µM | Malme-3M > 100 µM | NCI-H522 30.1 µM | OVCAR-4 51.5 µM | OVCAR-8 > 100 µM | SK-MEL-28 > 100 µM | SN12C > 100 µM

COc1nc(N=P(c2ccccc2)(c2ccccc2)c2ccccc2)cc(=O)n1C
inactive: 786-0 > 100 µM | A498 > 100 µM | A549 > 100 µM | ACHN > 100 µM | CCRF-CEM > 100 µM | EKVX > 100 µM | HCC 2998 > 100 µM | HCT-116 > 100 µM | HOP-62 > 100 µM | K562 > 100 µM | KM12 > 100 µM | LOX IMVI > 100 µM | M14 > 100 µM | NCI-H522 > 100 µM | OVCAR-4 > 100 µM | OVCAR-8 > 100 µM | SK-MEL-28 > 100 µM | SN12C > 100 µM | SNB-75 54.8 µM

O=C(NC(Cc1ccc(Cl)cc1)C(=O)O)c1ccc(I)cc1 (stereo not drawn)
inactive: A498 > 100 µM | A549 > 100 µM | CCRF-CEM > 100 µM | HCC 2998 3.42 µM | HCT-116 > 100 µM | HOP-62 > 100 µM | K562 > 100 µM | KM12 > 100 µM | LOX IMVI > 100 µM | Malme-3M > 100 µM | NCI-H522 > 83.2 µM | OVCAR-4 > 100 µM | OVCAR-8 > 100 µM | SK-MEL-28 > 100 µM | SN12C > 100 µM | SNB-75 86.3 µM

CC1CC(c2ccccc2)=Nc2ccccc2S1 (stereo not drawn)
inactive: A498 > 100 µM | A549 > 100 µM | ACHN > 100 µM | CCRF-CEM 34.7 µM | EKVX 72.8 µM | HCC 2998 > 100 µM | HCT-116 > 100 µM | HOP-62 > 100 µM | K562 79.4 µM | KM12 > 100 µM | LOX IMVI 84.7 µM | M14 > 100 µM | NCI-H522 41.9 µM | OVCAR-4 > 100 µM | OVCAR-8 > 100 µM | SK-MEL-28 > 100 µM | SN12C > 100 µM | SNB-75 > 100 µM

C=C(C)C1Cc2c(cc(O)c3c(=O)c4ccccc4n(C)c23)O1 (stereo not drawn)
inactive: A498 24.3 µM | A549 49.8 µM | ACHN 40.9 µM | CCRF-CEM 15.4 µM | HCC 2998 > 100 µM | HCT-116 69.8 µM | HOP-62 14.2 µM | KM12 > 100 µM | LOX IMVI 10.7 µM | M14 28.7 µM | Malme-3M 64.4 µM | NCI-H522 19.9 µM | OVCAR-4 9.93 µM | SK-MEL-28 > 100 µM | SN12C 43.1 µM | SNB-75 14.9 µM

COC(=O)C12C3C4C1C1C2C3C41C(=O)O (stereo not drawn)
inactive: 786-0 > 100 µM | A498 > 100 µM | A549 > 100 µM | ACHN > 100 µM | CCRF-CEM > 100 µM | EKVX > 100 µM | HCC 2998 > 100 µM | HOP-62 > 100 µM | K562 > 100 µM | M14 > 100 µM | Malme-3M > 100 µM | OVCAR-4 > 100 µM | OVCAR-8 > 100 µM | SK-MEL-28 > 100 µM | SN12C > 100 µM

COc1cc(C)c(CC/C(C)=C/Cc2cc(O)ccc2O)c(C)c1C [PANICEIN A HYDROQUINONE]
inactive: 786-0 > 25 µM | A498 > 25 µM | A549 > 25 µM | ACHN > 25 µM | CCRF-CEM 7.69 µM | EKVX > 25 µM | HCC 2998 > 25 µM | HCT-116 > 25 µM | K562 > 25 µM | KM12 > 25 µM | M14 > 25 µM | Malme-3M > 25 µM | NCI-H522 > 25 µM | OVCAR-4 > 25 µM | OVCAR-8 > 25 µM | SK-MEL-28 > 25 µM | SN12C > 25 µM | SNB-75 > 25 µM
